Laboratory results published in paper PMC3155411 (2011).

How the values were obtained:
[1] = target: T1, yeast alcohol dehydrogenase (Saccharomyces cerevisiae, UniProt P00330); test: fluorescence titration; format: binding
T1 sequence (P00330 2-348): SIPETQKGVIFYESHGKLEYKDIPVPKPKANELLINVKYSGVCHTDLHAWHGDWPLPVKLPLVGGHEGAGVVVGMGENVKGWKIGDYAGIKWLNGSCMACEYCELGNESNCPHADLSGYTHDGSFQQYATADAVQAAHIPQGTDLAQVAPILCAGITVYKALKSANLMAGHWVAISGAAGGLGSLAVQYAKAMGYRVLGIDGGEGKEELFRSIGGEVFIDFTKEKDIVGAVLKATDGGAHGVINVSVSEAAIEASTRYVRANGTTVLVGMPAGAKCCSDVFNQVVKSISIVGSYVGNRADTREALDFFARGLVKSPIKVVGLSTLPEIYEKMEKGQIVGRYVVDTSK

[2] = target: carbonic anhydrase (Zn-CA) (Bos taurus, UniProt P00921); test: fluorescence titration; format: binding
Sequence of carbonic anhydrase (Zn-CA) (P00921 2-260): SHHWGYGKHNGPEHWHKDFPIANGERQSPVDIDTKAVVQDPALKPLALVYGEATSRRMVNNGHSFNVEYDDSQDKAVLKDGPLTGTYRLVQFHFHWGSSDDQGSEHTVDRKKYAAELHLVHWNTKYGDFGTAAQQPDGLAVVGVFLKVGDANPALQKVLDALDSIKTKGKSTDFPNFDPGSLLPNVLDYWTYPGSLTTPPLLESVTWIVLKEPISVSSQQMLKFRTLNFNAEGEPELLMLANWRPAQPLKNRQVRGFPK

Kd [1]: 48.6 µM | Kd [2]: 0.155 µM
SMILES: COc1cc(NS(=O)(=O)c2ccc(C)cc2)c2ncccc2c1 [TSQ, 6-methoxy-8-p-toluenesulfonamido-quinoline]
